# Measured values from PMC4032265 (PLoS ONE, 2014).
# Where “and” joins values, the source holds several entries; their conditions need not be identical. Equal values may be shown once. Read-outs that look alike come from different tables or passages of the source.
# Tests used:
# [1] = target: H4 histaminergic receptor (Homo sapiens, UniProt Q9H3N8); test: PDSP radioligand binding, H4; details: read-out: % inhibition at 10 µM; single concentration 10 µM
# [2] = target: 5HT6 serotonergic receptor (Homo sapiens, UniProt P50406); test: PDSP radioligand binding, 5HT6; details: read-out: % inhibition at 10 µM; single concentration 10 µM
# Chain of 5HT6 serotonergic receptor (P50406 whole entry): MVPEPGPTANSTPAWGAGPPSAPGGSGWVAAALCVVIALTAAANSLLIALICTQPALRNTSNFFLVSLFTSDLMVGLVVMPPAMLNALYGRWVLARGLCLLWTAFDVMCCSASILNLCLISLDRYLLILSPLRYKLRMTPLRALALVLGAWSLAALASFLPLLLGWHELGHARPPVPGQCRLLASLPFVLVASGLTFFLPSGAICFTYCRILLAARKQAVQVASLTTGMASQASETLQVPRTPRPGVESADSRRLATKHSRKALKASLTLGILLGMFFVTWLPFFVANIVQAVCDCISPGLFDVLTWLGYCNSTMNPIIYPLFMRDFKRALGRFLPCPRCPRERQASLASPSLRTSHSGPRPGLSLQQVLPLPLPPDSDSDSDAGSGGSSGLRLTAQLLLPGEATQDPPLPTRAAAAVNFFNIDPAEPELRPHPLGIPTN
# [3] = target: T1, M4 muscarinic acetylcholine receptor (Homo sapiens, UniProt P08173); test: PDSP radioligand binding, M4; details: read-out: % inhibition at 10 µM; single concentration 10 µM
# T1 sequence (P08173 1-479): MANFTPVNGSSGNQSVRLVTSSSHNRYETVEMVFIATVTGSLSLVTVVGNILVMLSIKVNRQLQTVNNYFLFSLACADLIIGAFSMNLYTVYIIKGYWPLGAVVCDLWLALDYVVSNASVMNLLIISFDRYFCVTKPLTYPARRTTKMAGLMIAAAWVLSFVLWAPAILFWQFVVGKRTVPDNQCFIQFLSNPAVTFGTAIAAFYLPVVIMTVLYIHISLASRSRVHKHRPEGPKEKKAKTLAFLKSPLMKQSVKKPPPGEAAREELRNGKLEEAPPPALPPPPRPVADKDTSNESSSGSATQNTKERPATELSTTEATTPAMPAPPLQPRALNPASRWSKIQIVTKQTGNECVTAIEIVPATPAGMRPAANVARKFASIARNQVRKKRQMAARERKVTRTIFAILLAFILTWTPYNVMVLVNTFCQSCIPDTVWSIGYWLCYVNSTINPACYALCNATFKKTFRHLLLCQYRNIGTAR
# [4] = target: H3 histaminergic receptor (Homo sapiens, UniProt Q9Y5N1); test: PDSP radioligand binding, H3; details: read-out: % inhibition at 10 µM; single concentration 10 µM
# Chain of H3 histaminergic receptor (Q9Y5N1 whole entry): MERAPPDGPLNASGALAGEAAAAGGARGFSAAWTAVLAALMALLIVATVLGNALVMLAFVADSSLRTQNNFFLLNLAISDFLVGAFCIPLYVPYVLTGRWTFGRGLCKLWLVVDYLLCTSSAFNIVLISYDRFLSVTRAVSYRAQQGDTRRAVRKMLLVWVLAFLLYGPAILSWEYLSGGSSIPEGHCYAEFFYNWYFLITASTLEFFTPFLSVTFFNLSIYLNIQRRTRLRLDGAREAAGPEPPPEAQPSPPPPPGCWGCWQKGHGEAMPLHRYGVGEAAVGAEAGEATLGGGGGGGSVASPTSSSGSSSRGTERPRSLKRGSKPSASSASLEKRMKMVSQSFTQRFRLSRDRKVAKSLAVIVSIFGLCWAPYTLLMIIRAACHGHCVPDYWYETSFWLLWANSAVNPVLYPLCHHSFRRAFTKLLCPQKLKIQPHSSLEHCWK
# [5] = target: peripheral benzodiazepine receptor (PBR) (Rattus norvegicus, UniProt P16257); test: PDSP radioligand binding, PBR; details: for inhibition at 10 µM: read-out: % inhibition at 10 µM, single concentration 10 µM
# [6] = target: T2, M1 muscarinic acetylcholine receptor (Homo sapiens, UniProt P11229); test: PDSP radioligand binding, M1; details: read-out: % inhibition at 10 µM; single concentration 10 µM
# T2 sequence (P11229 1-460): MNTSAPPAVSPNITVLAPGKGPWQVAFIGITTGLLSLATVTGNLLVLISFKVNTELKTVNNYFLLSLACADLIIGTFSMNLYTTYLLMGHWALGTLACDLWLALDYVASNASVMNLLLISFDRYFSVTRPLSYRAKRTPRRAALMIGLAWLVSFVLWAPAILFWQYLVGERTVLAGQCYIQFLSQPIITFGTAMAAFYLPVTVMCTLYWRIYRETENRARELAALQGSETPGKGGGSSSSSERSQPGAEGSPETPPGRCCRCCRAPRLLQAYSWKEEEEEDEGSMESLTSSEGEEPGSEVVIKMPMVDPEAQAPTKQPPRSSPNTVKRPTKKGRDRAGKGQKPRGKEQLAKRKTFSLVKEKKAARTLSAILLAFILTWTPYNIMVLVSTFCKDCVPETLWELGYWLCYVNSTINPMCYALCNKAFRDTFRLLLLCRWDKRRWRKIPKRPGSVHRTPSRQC
# [7] = target: T3, α1D adrenergic receptor (Homo sapiens, UniProt P25100); test: PDSP radioligand binding, α1D; details: read-out: % inhibition at 10 µM; single concentration 10 µM
# T3 sequence (P25100 1-572): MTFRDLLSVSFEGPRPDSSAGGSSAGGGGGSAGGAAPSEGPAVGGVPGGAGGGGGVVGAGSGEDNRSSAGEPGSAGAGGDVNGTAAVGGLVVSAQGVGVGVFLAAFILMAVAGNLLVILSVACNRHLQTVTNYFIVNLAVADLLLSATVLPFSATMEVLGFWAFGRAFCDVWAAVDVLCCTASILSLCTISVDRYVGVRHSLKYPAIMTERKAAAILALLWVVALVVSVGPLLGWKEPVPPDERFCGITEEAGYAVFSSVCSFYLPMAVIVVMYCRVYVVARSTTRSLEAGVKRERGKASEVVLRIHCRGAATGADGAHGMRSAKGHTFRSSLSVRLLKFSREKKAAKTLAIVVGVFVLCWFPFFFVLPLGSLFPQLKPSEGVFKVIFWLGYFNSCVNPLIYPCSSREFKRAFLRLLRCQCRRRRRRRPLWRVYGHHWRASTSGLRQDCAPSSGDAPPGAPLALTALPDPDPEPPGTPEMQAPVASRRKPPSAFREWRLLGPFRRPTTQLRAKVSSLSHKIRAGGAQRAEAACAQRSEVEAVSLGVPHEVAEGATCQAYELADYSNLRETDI
# [8] = target: 5HT5A serotonergic receptor (Homo sapiens, UniProt P47898); test: PDSP radioligand binding, 5HT5A; details: read-out: % inhibition at 10 µM; single concentration 10 µM
# Chain of 5HT5A serotonergic receptor (P47898 whole entry): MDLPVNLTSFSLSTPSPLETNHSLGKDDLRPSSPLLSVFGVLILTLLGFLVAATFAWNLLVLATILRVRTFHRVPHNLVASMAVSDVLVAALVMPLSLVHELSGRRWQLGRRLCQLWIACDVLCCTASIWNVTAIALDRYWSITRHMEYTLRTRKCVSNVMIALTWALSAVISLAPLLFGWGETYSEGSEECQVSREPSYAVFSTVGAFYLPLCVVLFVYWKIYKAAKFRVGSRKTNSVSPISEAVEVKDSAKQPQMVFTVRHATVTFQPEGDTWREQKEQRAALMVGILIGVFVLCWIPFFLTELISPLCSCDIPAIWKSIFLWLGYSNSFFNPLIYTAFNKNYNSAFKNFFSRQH
# [9] = target: T4, σ2 receptor (Rattus norvegicus, UniProt Q5U3Y7); test: PDSP radioligand binding, σ2; details: for inhibition at 10 µM: read-out: % inhibition at 10 µM, single concentration 10 µM
# T4 sequence (Q5U3Y7 1-176): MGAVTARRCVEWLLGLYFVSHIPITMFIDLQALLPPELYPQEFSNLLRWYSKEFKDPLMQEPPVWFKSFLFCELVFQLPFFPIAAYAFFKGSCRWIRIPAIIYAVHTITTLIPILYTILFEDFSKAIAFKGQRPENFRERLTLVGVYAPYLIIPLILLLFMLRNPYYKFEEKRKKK
# [10] = target: T5, α1B adrenergic receptor (Homo sapiens, UniProt P35368); test: PDSP radioligand binding, α1B; details: read-out: % inhibition at 10 µM; single concentration 10 µM
# T5 sequence (P35368 1-520): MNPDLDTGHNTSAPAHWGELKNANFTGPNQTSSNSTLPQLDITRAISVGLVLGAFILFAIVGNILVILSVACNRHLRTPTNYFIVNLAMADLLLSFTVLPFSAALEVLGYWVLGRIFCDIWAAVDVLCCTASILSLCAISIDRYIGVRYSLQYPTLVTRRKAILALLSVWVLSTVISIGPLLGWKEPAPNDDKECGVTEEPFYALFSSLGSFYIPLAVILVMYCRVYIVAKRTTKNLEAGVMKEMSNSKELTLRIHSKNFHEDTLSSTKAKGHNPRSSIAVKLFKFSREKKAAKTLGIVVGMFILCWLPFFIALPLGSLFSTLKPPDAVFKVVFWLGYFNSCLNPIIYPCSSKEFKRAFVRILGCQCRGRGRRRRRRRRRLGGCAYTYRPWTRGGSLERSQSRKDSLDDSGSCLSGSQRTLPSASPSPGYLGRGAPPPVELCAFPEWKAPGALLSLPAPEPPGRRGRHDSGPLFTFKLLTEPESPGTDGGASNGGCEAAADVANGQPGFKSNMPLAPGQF
# [11] = target: 5HT2B serotonergic receptor (Homo sapiens, UniProt P41595); test: PDSP radioligand binding, 5HT2B; details: for Ki: full concentration-response curves, n = 3-6 unless noted; for inhibition at 10 µM: read-out: % inhibition at 10 µM
# Chain of 5HT2B serotonergic receptor (P41595 whole entry): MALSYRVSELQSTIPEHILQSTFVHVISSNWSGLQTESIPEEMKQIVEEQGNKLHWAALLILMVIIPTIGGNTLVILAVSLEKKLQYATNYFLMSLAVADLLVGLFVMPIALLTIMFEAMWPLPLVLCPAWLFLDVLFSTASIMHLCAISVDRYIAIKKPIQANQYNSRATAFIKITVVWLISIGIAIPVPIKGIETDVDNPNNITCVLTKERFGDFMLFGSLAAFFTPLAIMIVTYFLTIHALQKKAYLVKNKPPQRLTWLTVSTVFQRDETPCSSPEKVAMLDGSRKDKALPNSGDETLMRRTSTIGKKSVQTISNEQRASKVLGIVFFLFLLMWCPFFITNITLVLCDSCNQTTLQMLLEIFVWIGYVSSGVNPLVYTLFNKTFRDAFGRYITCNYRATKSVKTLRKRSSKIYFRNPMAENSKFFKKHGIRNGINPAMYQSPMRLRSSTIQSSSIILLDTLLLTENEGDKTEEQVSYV
# [12] = test system: GABAA receptor; test: PDSP radioligand binding, GABAA; details: single concentration 10 µM
# Chain of H4 histaminergic receptor (Q9H3N8 whole entry): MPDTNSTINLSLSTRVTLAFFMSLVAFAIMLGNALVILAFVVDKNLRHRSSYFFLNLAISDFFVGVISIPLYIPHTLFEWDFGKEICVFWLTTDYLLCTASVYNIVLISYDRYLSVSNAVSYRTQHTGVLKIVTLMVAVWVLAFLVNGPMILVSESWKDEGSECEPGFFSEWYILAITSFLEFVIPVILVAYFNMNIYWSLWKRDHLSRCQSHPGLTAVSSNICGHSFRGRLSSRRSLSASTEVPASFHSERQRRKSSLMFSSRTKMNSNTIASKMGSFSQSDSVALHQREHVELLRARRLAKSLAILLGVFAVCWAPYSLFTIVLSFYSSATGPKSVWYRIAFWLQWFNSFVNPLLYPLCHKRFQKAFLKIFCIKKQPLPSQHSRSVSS
smiles,measurement,setting,value
O[C@@H]1[C@H](O)[C@@H]2C[C@@H]2[C@H]1n1cnc2c(NC(C3CC3)C3CC3)nc(Cl)nc21 [Compound 10],inhibition at 10 µM,[1],6%
same,inhibition at 10 µM,[2],0%
same,inhibition at 10 µM,[3],7%
same,inhibition at 10 µM,[4],8%
same,inhibition at 10 µM,[5],0%
same,inhibition at 10 µM,[6],0%
same,inhibition at 10 µM,[7],13%
same,inhibition at 10 µM,[8],0%
same,inhibition at 10 µM,[9],0%
same,inhibition at 10 µM,[10],8%
same,Ki,[11],640 nM and 641 nM
same,inhibition at 10 µM,[11],47%
same,% inhibition at 10 µM,[12],11%
O[C@@H]1[C@H](O)[C@@H]2C[C@@H]2[C@H]1n1cnc2c(NCc3cccc(Cl)c3)ncnc21 [Compound 7],inhibition at 10 µM,[1],0%
same,inhibition at 10 µM,[2],39%
same,inhibition at 10 µM,[3],4%
same,inhibition at 10 µM,[4],0%
same,inhibition at 10 µM,[5],13%
same,inhibition at 10 µM,[6],24%
same,inhibition at 10 µM,[7],30%
same,inhibition at 10 µM,[8],16%
same,Ki,"[9]; full curves, n = 2",2680 ± 470 nM
same,inhibition at 10 µM,[9],66%
same,inhibition at 10 µM,[10],32%
same,Ki,[11],2220 ± 650 nM
same,inhibition at 10 µM,[11]; single concentration 10 µM,75%
same,% inhibition at 10 µM,[12],0%
Fc1ccc(C#Cc2nc(NCc3cccc(Cl)c3)c3nc[nH]c3n2)cc1F [Compound 8],inhibition at 10 µM,[1],5%
same,inhibition at 10 µM,[2],0%
same,inhibition at 10 µM,[3],4%
same,inhibition at 10 µM,[4],0%
same,inhibition at 10 µM,[5],13%
same,inhibition at 10 µM,[6],27%
same,inhibition at 10 µM,[7],0%
same,inhibition at 10 µM,[8],11%
same,inhibition at 10 µM,[9],14%
same,inhibition at 10 µM,[10],30%
same,Ki,[11],4000 ± 1920 nM
same,inhibition at 10 µM,[11]; single concentration 10 µM,39%
same,% inhibition at 10 µM,[12],0%
CNC(=O)[C@@]12C[C@@H]1[C@@H](n1cnc3c(NCc4cccc(Cl)c4)nc(Cl)nc31)[C@H](O)[C@@H]2O [Compound 4],inhibition at 10 µM,[2],9%
same,inhibition at 10 µM,[3],30%
same,inhibition at 10 µM,[4],0%
same,inhibition at 10 µM,[5],32%
same,inhibition at 10 µM,[6],0%
same,inhibition at 10 µM,[7],0%
same,inhibition at 10 µM,[8],21%
same,inhibition at 10 µM,[9],0%
same,inhibition at 10 µM,[10],30%
same,Ki,[11],75 ± 7 nM
same,inhibition at 10 µM,[11]; single concentration 10 µM,95%
same,% inhibition at 10 µM,[12],0%
CNC(=O)[C@@]12C[C@@H]1[C@@H](n1cnc3c(NCc4cccc(Cl)c4)nc(C#Cc4ccc(F)cc4)nc31)[C@H](O)[C@@H]2O [Compound 2],inhibition at 10 µM,[1],28%
same,inhibition at 10 µM,[2],36%
same,inhibition at 10 µM,[3],8%
same,inhibition at 10 µM,[4],0%
same,Ki,"[5]; full curves, n = 2",253 ± 57 nM
same,inhibition at 10 µM,[5],92%
same,inhibition at 10 µM,[6],12%
same,inhibition at 10 µM,[7],6%
same,inhibition at 10 µM,[8],25%
same,inhibition at 10 µM,[9],30%
same,inhibition at 10 µM,[10],1%
same,Ki,[11],2130 ± 270 nM
same,inhibition at 10 µM,[11]; single concentration 10 µM,56%
same,% inhibition at 10 µM,[12],0%
